Values of other authors, collected in patent US20060251690A1, “Skin enrichment using CoQ10 as the delivery system” (Zymes, LLC, priority 2005, published 2006).
Where two headings read alike, the source gives them in different places. Values belong to the compound of their own block, whether it stands above or below them.

Experiments:
[1] = after chronic topical use, combined with other fat and water soluble ingredients
[2] = not given; remark: listed apart in the source
[3] = human skin (in vitro)
[4] = not given; remark: listed apart in the source

SMILES: COC1=C(OC)C(=O)C(C/C=C(\C)CC/C=C(\C)CC/C=C(\C)CC/C=C(\C)CC/C=C(\C)CC/C=C(\C)CC/C=C(\C)CC/C=C(\C)CC/C=C(\C)CCC=C(C)C)=C(C)C1=O [CoQ10, 2,3 dimethoxy-5 methyl-6 decaprenyl benzoquinone]
- half life: > 30 h

- absorption of adapalene [1]: < 0.25 ng/mL
- solubility in polar solvents such as ethanol ([2]; ethanol): only sparingly soluble
- solubility in water ([2]; water): virtually insoluble
SMILES: COc1ccc(-c2ccc3cc(C(=O)O)ccc3c2)cc1C12CC3CC(CC(C3)C1)C2 [adapalene]

- applied dose found in the epidermis and dermis [3]: Up to 10%
- half-life after application [4]: 12 h
SMILES: O=C(O)CCCCCCCC(=O)O [azelaic acid]

SMILES: O=C1O[C@H]([C@@H](O)CO)C(O)=C1O [vitamin C]
- half life (autoxidation named as cause): 0.5 h
